For assay [1], the target named is T1, Neuropeptide Y receptor type 1 (Homo sapiens, UniProt P25929).
T1 sequence (P25929 whole entry): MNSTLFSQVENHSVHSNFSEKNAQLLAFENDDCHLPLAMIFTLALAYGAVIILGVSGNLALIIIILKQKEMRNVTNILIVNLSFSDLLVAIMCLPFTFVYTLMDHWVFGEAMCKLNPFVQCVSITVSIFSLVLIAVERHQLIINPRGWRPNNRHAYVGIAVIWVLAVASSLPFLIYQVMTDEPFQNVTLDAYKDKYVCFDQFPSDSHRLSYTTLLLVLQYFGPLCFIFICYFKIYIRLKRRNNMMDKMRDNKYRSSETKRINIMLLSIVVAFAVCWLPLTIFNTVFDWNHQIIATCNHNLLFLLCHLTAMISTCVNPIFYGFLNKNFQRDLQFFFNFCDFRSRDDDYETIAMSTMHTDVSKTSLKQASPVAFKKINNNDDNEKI
Description: Inhibition of I-PYY binding to Nueopeptide Y1 receptor expressed in human neuroblastoma SK-N-MC cells. The format is cell-based.

The target in assay [2] is T1, Neuropeptide Y receptor type 1. Description: Binding affinity against Neuropeptide Y receptor type 1 using I-PYY as a radioligand in human neuroblastoma SK-N-MC cells. The class given is cell-based.

Turning to `COC(=O)C1=C(C)N=C(C)/C(=C(/O)OC)C1c1cccc(N/C(=N/CCCN2CCC(c3ccccc3)CC2)NC#N)c1` (stereo not drawn), the IC50 (usually the concentration at which inhibition is half-maximal) in assay [1] was determined as 0.0054 µM.
`COC(=O)C1=C(C)N=C(C)/C(=C(/O)OC)N1c1cccc(N/C(=N/CCCN2CCC(c3ccccc3)CC2)NC#N)c1` returned a 50% inhibitory concentration (IC50) in assay [1] of 0.268 µM.
Still for that read-out and setting: under `COC(=O)C1=C(C)N=C(C)/C(=C(/O)OC)C1c1cccc(N/C(S)=N/CCCN2CCN(C3CCCCC3)CC2)c1` (stereo not drawn) stands 0.132 µM; under `COC(=O)C1=C(C)N=C(C)/C(=C(/O)OC)N1c1cccc(NC(=O)NCCCN2CCC(c3cccc(OC)c3)CC2)c1`, 0.554 µM; under `COC(=O)C1=C(C)N=C(C)/C(=C(/O)OC)N1c1cccc(N/C(S)=N/CCCN2CCN(C3CCCCC3)CC2)c1`, more than 1 µM.
With `COC(=O)C1=C(C)N=C(C)/C(=C(/O)OC)C1c1cccc(N/C(=N/CCCN2CCC(C(C)(C)C)CC2)NC#N)c1` (stereo not drawn), the IC50 in assay [1] was less than 0.001 µM.
Same read-out and setting: under `COC(=O)C1=C(C)N=C(C)/C(=C(/O)OC)C1c1cccc(NC(=O)NCCCN2CCN(C3CCCCC3)CC2)c1` (stereo not drawn) stands 0.176 µM; under `COC(=O)C1=C(C)N=C(C)/C(=C(/O)OC)N1c1cccc(N/C(S)=N/CCCN2CCC(C(C)(C)C)CC2)c1`, more than 1 µM.
For the compound `COC(=O)C1=C(C)N=C(C)/C(=C(/O)OC)N1c1cccc(N/C(S)=N/CCCN2CCC(c3cccc(OC)c3)CC2)c1`, in assay [1], the IC50 was found to be 0.945 µM.
Regarding `COC(=O)C1=C(C)N=C(C)/C(=C(/O)OC)C1c1cccc(NC(=O)NCCCN2CCC(c3cccc(OC)c3)CC2)c1` (stereo not drawn), the IC50 in assay [2] is 0.0042 µM.
On to `COC(=O)C1=C(C)N=C(C)/C(=C(/O)OC)C1c1cccc(N/C(S)=N/CCCN2CCC(c3cccc(OC)c3)CC2)c1` (stereo not drawn), for which, in assay [1], the IC50 was found to be 0.0128 µM.
Take `COC(=O)C1=C(C)N=C(C)/C(=C(/O)OC)N1c1cccc(NC(=O)NCCCN2CCN(C3CCCCC3)CC2)c1`: the IC50 in assay [1] was 0.434 µM.
The same measure, in the same setting: under `COC(=O)C1=C(C)N=C(C)/C(=C(/O)OC)N1c1cccc(N/C(=N/CCCN2CCC(C(C)(C)C)CC2)NC#N)c1` stands 0.231 µM.

Values taken from ChEMBL document CHEMBL1135029, “Novel dihydropyrazine analogues as NPY antagonists” (Bioorg Med Chem Lett, 2002).
